Measurements reported in patent EP1897937A1, “Method of culturing NPCs” (NeuroProgen GmbH Leipzig, priority 2006, dated 2008).

Experiments:
[1] = system: hmNPCs; assay: Western blot of proliferation marker PCNA and survival marker Bcl-2; assay type: cell-based, human; settings: 2 weeks
Description: (§1) To determine long-term proliferation, hmNPCs were plated and expanded for 2 passages with or without addition of various agents (see below) to the custom expansion media containing the growth factors EGF and FGF2. Different fetal midbrain tissues were included in this study. At the end of the proliferation period, differentiation of hmNPCs was induced via replacement of expansion media with mitogen-free media containing 1% FCS, 5 µM forskoline (Sigma-Aldrich Chemie GmbH Munich, Germany), and 100 pg/ml IL-1β (Sigma). The differentiation and expansion media were supplemented with different drugs as appropriate. Prior to immunocytochemistry or protein extraction, hmNPCs were allowed to differentiate for 1 week. To determine short-term proliferation via Ki67 immunostaining, the cells were seeded into 24-well plates (70,000 cells/well) and left overnight to rest. P2 receptor agonists (ATP, UTP, ATP + UTP, ADP, ADPβS) were supplied daily for 5 consecutive days. Ki67/nestin double-positive cells were counted in 8 randomly selected fields of nucleotide-treated or untreated samples. For the assessment of MAPK phosphorylation the cells were kept free of mitogens for 2 d prior to addition of the MEK-inhibitor in expansion media. In addition, the MEK-inhibitor was added during the differentiation period 15 min before UTP administration.
In order to prepare protein extracts, hmNPCs were collected, washed with ice-cold PBS and lysed in buffer [10 mM HEPES-KOH (pH 7.9), 10 mM KCI, 1.5 mM MgCl2, 0.1% NP-40], supplemented with protease inhibitor cocktail (Roche). After a brief centrifugation at 4°C/10 000×g, protein concentrations and protein yield from extracts were determined using the Bradford method (Bio-Rad, Hercules, CA, USA). To preserve the phosphorylation state of proteins, extracts for the MAPK experiment were obtained using the PhosphoSafe™ extraction reagent containing phophatase inhibitors (Novagen). […] The chemiluminescence was quantified using the AIDA, two-dimensional densitometry software (Raytest lsotopenmeb, Straubenhardt, Germany). […]

[2] = system: ERK1/2; assay: ERK1/2 (MAPK) phosphorylation by Western blot; assay type: cell-based, human
Description: as §1
UTP, UDP, ATP, ADP, ADPβS and suramin were purchased from Sigma (Sigma-Aldrich Chemie GmbH Munich, Germany). UTP and UDP were applied at different concentrations (1 µM, 10 µM, 100 µM), ATP at 100 µM, ADP at 100 µM, and ADPβS at100 µM. During expansion of the cells, the nucleotides were renewed once a week with every media change, unless otherwise stated. They were applied once at the beginning of the differentiation period. The P2 receptor antagonist suramin (10 µM) was added to expansion media 30 min prior to addition of UTP (100 µM). The stock solution of the MEK1/2 inhibitor U0126 (Promega Corporation, Mannheim, Germany) was prepared in dimethyl sulfoxide (DMSO) at a concentration of 10 mM. The stock solution was then diluted in 0.1 M PBS to obtain a concentration of 1 mM. MEK inhibitor (final concentration 10 µM) was added to mitogen-free expansion media, 15 min before UTP treatment (1 µM) of hmNPCs.
In order to prepare protein extracts, hmNPCs were collected, washed with ice-cold PBS and lysed in buffer [10 mM HEPES-KOH (pH 7.9), 10 mM KCI, 1.5 mM MgCl2, 0.1% NP-40], supplemented with protease inhibitor cocktail (Roche). After a brief centrifugation at 4°C/10 000×g, protein concentrations and protein yield from extracts were determined using the Bradford method (Bio-Rad, Hercules, CA, USA). To preserve the phosphorylation state of proteins, extracts for the MAPK experiment were obtained using the PhosphoSafe™ extraction reagent containing phophatase inhibitors (Novagen). […] Membranes were blocked with 5% (wt/vol) nonfat dry milk in PBS-T (PBS, 0.1% (vol/vol) Tween 20) for 2 h at room temperature and subsequently incubated with the desired primary antibody (diluted in PBS containing 5% non-fat milk and 0.1% Tween 20) overnight at 4 °C with gentle agitation. The membrane was incubated with horseradish peroxidase-coupled secondary antibody for 1 h at room temperature. […] The chemiluminescence was quantified using the AIDA, two-dimensional densitometry software (Raytest lsotopenmeb, Straubenhardt, Germany).

For `O=c1ccn([C@@H]2O[C@H](COP(=O)(O)OP(=O)(O)OP(=O)(O)O)[C@@H](O)[C@H]2O)c(=O)[nH]1` [UTP, uridine 5'-triphosphate], the activity at 1 µM ([1]; Homo sapiens, 336 h, 1 µM, read-out: expression of the proliferation marker PCNA compared to control cells) was 330 ± 23%, the “expression of the survival marker Bcl-2” value ([1]; increasing UTP concentrations) was “did not significantly change” and the “ERK1/2 (MAPK) phosphorylation” value ([2]; 1 µM, 30 min, expansion media, mitogen-free) was “phosphorylated”. The “expression of phosphorylated ERK1/2” value ([2]; 100 µM, one week of differentiation) was “increased”.
